Results: ChEMBL document CHEMBL4145442, “Novel LCK/FMS inhibitors based on phenoxypyrimidine scaffold as potential treatment for inflammatory disorders” (Eur J Med Chem, 2017)
Activity calls are given as the source filed them. The calls are words filed in the database; no cut-off is given here.

How the values were obtained:
RAW264.7 [1] = assay: Inhibition of LPS-induced NO production in mouse RAW264.7 cells after 24 hrs by Griess assay; assay type: functional, cell-based; conditions: RAW264.7, 24 h
[2] = molecular target: T1, Tyrosine-protein kinase Lck (Homo sapiens, UniProt P06239); assay: Inhibition of LCK (unknown origin) after 120 mins in presence of 33P-ATP
Target sequence in this assay (P06239 whole entry): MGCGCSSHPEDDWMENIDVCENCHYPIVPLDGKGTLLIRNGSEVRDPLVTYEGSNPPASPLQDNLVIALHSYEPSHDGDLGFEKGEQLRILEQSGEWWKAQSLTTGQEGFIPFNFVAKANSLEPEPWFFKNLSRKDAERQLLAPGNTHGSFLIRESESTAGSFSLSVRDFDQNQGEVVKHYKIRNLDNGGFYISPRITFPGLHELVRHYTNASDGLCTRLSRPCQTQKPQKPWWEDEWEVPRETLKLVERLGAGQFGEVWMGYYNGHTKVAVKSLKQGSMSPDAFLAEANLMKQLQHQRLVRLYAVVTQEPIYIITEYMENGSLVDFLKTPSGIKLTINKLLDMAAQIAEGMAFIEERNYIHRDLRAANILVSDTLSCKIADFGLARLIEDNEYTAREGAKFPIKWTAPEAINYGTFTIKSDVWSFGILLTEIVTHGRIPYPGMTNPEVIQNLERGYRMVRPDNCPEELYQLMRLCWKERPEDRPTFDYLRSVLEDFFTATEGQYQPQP

[3] = molecular target: T1, Tyrosine-protein kinase Lck; assay: Inhibition of LCK (unknown origin) assessed as remaining activity at 3 x 10^-5 M after 120 mins in presence of 33P-ATP (reference value: […]% to […]%); conditions: at 30 µM
Target sequence in this assay (P06239 2-509 limits assumed): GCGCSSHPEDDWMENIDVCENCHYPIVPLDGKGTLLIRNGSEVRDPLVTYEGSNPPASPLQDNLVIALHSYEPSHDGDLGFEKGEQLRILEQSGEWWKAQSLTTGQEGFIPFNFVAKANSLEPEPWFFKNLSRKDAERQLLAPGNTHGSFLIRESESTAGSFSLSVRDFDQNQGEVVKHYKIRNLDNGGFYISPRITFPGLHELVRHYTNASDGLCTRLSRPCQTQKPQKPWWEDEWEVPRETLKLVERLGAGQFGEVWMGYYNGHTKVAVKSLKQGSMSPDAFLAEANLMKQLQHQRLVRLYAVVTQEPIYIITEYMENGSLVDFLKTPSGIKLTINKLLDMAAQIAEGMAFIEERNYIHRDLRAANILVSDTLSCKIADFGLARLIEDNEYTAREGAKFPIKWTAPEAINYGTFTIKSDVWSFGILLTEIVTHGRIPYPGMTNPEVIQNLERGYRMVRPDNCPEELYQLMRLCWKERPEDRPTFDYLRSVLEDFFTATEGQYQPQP

[4] = molecular target: Macrophage colony-stimulating factor 1 receptor (Homo sapiens, UniProt P07333); assay: Inhibition of FMS (unknown origin) after 120 mins in presence of 33P-ATP
Macrophage colony-stimulating factor 1 receptor, sequence (P07333 whole entry): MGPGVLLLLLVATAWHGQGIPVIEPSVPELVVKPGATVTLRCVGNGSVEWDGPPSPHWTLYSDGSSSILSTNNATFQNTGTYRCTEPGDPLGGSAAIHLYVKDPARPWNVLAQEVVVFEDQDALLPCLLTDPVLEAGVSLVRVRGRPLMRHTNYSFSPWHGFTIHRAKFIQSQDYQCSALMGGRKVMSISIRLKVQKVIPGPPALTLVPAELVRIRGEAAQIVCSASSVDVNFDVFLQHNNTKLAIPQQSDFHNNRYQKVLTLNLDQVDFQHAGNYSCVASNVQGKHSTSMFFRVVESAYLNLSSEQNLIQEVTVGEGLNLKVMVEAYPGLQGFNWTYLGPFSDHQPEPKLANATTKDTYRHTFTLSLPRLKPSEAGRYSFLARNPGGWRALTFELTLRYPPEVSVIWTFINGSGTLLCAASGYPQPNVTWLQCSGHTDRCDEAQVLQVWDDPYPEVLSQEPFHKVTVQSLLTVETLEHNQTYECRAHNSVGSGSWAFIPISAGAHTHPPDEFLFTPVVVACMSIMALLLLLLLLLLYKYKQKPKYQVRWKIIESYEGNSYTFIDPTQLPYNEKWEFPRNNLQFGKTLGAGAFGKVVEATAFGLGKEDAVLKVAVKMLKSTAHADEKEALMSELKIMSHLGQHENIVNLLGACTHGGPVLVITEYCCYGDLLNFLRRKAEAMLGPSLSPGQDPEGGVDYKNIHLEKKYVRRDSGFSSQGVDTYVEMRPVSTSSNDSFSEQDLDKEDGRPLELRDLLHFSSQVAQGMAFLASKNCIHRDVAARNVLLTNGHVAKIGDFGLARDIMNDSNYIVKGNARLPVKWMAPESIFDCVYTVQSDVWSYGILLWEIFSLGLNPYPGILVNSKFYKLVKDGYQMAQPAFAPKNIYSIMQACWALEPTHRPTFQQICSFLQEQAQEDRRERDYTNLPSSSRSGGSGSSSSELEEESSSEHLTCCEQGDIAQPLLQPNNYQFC

[5] = molecular target: T1, Tyrosine-protein kinase Lck; assay: Inhibition of LCK (unknown origin) assessed as remaining activity at 1 x 10^-5 M after 120 mins in presence of 33P-ATP (reference value: […]% to […]%); conditions: at 10 µM
Target sequence in this assay (P06239 2-509 limits assumed): as the sequence (P06239 2-509 limits assumed) above

[6] = molecular target: T1, Tyrosine-protein kinase Lck; assay: Inhibition of LCK (unknown origin) assessed as remaining activity at 3.33 x 10^-6 M after 120 mins in presence of 33P-ATP (reference value: […]% to […]%); conditions: at 3.33 µM
Target sequence in this assay (P06239 2-509 limits assumed): as above

[7] = molecular target: T1, Tyrosine-protein kinase Lck; assay: Inhibition of LCK (unknown origin) assessed as remaining activity at […] x 10^-6 M after 120 mins in presence of 33P-ATP (reference value: […]% to […]%)
Target sequence in this assay (P06239 2-509 limits assumed): as above

[8] = molecular target: T1, Tyrosine-protein kinase Lck; assay: Inhibition of LCK (unknown origin) assessed as remaining activity at 3.7 x 10^-7 M after 120 mins in presence of 33P-ATP (reference value: […]% to […]%); conditions: at 0.37 µM
Target sequence in this assay (P06239 2-509 limits assumed): as above

[9] = (§1) Cytotoxicity against mouse RAW264.7 cells after 4 hrs by MTT assay; assay type: cell-based; conditions: mouse, RAW264.7 cells
RAW264.7 [10] = assay: as §1; assay type: cell-based; conditions: Mus musculus, RAW264.7, 4 h
[11] = molecular target: Tyrosine-protein kinase Lyn (Homo sapiens, UniProt P07948)
Tyrosine-protein kinase Lyn, sequence (P07948 whole entry): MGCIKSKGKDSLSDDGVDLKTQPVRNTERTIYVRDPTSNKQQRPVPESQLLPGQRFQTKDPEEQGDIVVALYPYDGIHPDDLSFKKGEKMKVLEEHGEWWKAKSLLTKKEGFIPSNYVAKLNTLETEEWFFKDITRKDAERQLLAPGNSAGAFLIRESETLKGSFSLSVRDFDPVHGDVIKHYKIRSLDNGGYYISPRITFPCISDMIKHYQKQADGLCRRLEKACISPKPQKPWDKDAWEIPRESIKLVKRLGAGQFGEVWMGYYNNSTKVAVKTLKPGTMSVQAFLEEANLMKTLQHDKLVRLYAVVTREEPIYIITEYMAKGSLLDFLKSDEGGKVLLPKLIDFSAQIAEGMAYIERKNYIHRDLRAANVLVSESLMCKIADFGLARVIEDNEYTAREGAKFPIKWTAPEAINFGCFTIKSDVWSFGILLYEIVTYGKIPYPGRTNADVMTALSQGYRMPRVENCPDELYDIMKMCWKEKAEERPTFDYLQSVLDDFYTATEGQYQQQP
Description: Inhibition of LYN (unknown origin)

[12] = molecular target: High affinity nerve growth factor receptor (Homo sapiens, UniProt P04629)
High affinity nerve growth factor receptor, sequence (P04629 whole entry): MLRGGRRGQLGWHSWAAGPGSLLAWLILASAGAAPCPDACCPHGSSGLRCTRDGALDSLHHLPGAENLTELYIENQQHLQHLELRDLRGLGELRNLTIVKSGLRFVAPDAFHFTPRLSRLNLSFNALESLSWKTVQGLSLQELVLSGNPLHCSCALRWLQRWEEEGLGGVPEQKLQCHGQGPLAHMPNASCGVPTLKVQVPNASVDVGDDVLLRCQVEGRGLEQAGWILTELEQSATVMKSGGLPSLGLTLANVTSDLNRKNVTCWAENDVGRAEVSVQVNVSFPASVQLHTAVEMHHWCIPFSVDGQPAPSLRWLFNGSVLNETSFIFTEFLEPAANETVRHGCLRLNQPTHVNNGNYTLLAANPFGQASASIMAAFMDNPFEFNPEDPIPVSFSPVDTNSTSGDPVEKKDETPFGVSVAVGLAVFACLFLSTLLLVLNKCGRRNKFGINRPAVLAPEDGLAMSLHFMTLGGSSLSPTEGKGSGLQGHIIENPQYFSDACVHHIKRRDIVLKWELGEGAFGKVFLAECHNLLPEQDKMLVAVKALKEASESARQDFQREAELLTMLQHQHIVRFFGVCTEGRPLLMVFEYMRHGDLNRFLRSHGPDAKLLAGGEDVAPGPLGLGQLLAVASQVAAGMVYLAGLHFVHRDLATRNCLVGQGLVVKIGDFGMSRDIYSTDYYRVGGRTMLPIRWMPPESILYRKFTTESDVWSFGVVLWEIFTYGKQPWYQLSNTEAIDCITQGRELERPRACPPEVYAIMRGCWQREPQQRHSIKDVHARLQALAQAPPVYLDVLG
Description: Inhibition of TRKA (unknown origin)

[13] = molecular target: Homeodomain-interacting protein kinase 1 (Homo sapiens, UniProt Q86Z02); assay: Inhibition of HIPK1 (unknown origin)
Homeodomain-interacting protein kinase 1, sequence (Q86Z02 whole entry): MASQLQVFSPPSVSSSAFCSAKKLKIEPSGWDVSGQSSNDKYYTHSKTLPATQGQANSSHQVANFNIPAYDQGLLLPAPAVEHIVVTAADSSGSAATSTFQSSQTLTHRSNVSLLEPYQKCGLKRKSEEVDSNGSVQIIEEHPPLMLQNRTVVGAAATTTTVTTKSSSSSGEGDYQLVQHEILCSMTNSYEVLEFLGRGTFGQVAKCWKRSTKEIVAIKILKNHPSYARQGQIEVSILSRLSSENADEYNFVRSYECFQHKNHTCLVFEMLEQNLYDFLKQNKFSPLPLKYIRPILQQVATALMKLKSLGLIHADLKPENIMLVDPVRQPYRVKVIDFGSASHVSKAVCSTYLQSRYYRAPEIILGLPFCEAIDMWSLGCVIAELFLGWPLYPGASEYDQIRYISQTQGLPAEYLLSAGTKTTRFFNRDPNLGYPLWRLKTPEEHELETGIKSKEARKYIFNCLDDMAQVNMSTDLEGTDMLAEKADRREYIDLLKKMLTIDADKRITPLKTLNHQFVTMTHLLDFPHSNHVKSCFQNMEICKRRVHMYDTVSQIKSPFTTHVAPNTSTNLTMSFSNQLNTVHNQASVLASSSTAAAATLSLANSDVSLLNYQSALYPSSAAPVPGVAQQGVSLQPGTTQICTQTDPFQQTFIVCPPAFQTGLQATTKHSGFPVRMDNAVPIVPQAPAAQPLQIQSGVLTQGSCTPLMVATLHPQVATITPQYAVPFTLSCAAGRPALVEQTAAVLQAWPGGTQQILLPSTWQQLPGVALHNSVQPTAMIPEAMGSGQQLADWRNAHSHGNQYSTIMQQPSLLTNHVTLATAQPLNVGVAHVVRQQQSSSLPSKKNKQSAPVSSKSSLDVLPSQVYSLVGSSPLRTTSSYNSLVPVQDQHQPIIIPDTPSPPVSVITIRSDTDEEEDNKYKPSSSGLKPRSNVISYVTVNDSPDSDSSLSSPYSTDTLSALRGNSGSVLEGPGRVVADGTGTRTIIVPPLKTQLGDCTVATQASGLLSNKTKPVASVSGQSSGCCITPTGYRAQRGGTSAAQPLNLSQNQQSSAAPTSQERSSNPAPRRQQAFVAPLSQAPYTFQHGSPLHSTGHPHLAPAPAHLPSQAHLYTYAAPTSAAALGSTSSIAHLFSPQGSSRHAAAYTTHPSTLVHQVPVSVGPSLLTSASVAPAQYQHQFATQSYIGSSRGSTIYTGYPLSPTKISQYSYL

RAW264.7 [14] = assay: Antiinflammatory activity in mouse RAW264.7 cells assessed as inhibition of LPS-induced PGE2 production after 24 hrs by enzyme immunoassay; assay type: functional, cell-based; conditions: RAW264.7, 24 h
RAW264.7 [15] = assay: Potency index, ratio of L-NIL IC50 to compound IC50 for inhibition of LPS-induced NO production in mouse RAW264.7 cells; assay type: functional
RAW264.7 [16] = assay: Antiinflammatory activity against mouse RAW264.7 cells assessed as inhibition of LPS induced COX-2 protein expression at 3 to 12 uM after 24 hrs by Western blot analysis; assay type: functional, cell-based
RAW264.7 [17] = assay: Antiinflammatory activity against mouse RAW264.7 cells assessed as inhibition of LPS-induced iNOS protein expression at 3 to 12 uM after 24 hrs by Western blot analysis; assay type: functional, cell-based

Structure (SMILES)	IC50 (RAW264.7 [1])	IC50 [2]	Activity [3]	IC50 [4]	Activity [5]	Activity [6]	Activity [7]	Activity [8]	IC80 at 4 h [9]	IC50 (RAW264.7 [10])	IC50 [11]	IC50 [12]	IC50 [13]	IC50 (RAW264.7 [14])	Ratio IC50 (RAW264.7 [15])	inhibition (RAW264.7 [16])	inhibition (RAW264.7 [17])
C/C(=N/N)NCCCC[C@H](N)C(=O)O	28.3 µM																
COc1cc(/C=N/c2cnc(Nc3ccc(N4CCOCC4)cc3)nc2Oc2ccc(F)cc2)cc(OC)c1		3.17 µM	65.3 to 69.2%	0.021 µM	39.9 to 41%	42.7 to 47.8%	62.5 to 64.3%	76.7 to 83.1%									
COc1cc(C)ccc1Oc1nc(Nc2ccc(N3CCOCC3)cc2)ncc1/N=C/c1ccccc1Cl	> 1 µM	0.225 µM	6.29 to 7.37%		11.3 to 11.5%	13.4 to 15.1%	26.9 to 29.3%	42.5 to 42.8%	> 1 µM								
COc1cc(NC(=O)Nc2cnc(Nc3ccc(N4CCOCC4)cc3)nc2Oc2ccc(C)cc2OC)cc(OC)c1	> 80 µM	0.502 µM								> 80 µM	4.2 µM	8.54 µM					
COc1ccc(OC)c(/C=N/c2cnc(Nc3ccc(N4CCOCC4)cc3)nc2Oc2ccc(C)cc2OC)c1	> 1 µM	0.11 µM	8.37 to 10.1%		12.5 to 14.4%	12.8 to 13.1%	19.9 to 21.8%	38.7 to 38.9%	> 1 µM								
Cn1cc(C2=C(c3cn(CCCSC(=N)N)c4ccccc34)C(=O)NC2=O)c2ccccc21													0.000367 µM				
COc1cc(C)ccc1Oc1nc(Nc2ccc(N3CCOCC3)cc2)ncc1/N=C/c1cc(Cl)cc(Cl)c1	> 1 µM	0.0065 µM	38.9 to 40.7%		37.1%	32.8 to 33.6%	26.7 to 26.9%	35.8 to 36.1%	0.987 µM								
CS(=O)(=O)Nc1ccc([N+](=O)[O-])cc1OC1CCCCC1 [NS-398]														0.00723 µM			
COc1ccc(Oc2nc(Nc3ccc(N4CCOCC4)cc3)ncc2/N=C/c2cc(OC)cc(OC)c2)cc1	10.3 µM	0.022 µM	44.8 to 48.5%	0.0046 µM	27.4 to 28.3%	30.3 to 32.9%	37.8 to 39.9%	53.2%	> 12 µM					5.22 µM	>2.5	inactive	Active
COc1cc(/C=N/c2cnc(Nc3ccc(N4CCOCC4)cc3)nc2Oc2ccc(C(F)(F)F)cc2)cc(OC)c1		12.1 µM	49.4 to 59.3%	0.014 µM	43.8 to 52.2%	58.4 to 60%	61.8 to 72.5%	83.1 to 91.7%									
COc1cc(/C=N/c2cnc(Nc3ccc(N4CCOCC4)cc3)nc2Oc2ccc(C)cc2OC)cc(OC)c1	> 1 µM	0.106 µM	4.38 to 7.22%	0.883 µM	7.1 to 8.37%	10.3 to 12.6%	21.3 to 26.9%	28.8 to 37.5%	> 1 µM								
COc1cc(C)ccc1Oc1nc(Nc2ccc(N3CCOCC3)cc2)ncc1NCc1cc(C(F)(F)F)cc(C(F)(F)F)c1		11.6 µM	41.1 to 41.7%		55.1 to 58.1%	66.6 to 71%	88.1 to 91.2%	104%									
COc1cc(C)ccc1Oc1nc(Nc2ccc(N3CCOCC3)cc2)ncc1NCc1ccc(Cl)cc1		0.312 µM	2.49 to 2.9%		7.08 to 7.66%	11.2 to 11.3%	20 to 20.2%	43.1 to 46.1%									
COc1cc(C)ccc1Oc1nc(Nc2ccc(N3CCOCC3)cc2)ncc1/N=C/c1cccc(OC(C)C)c1	> 5 µM	0.039 µM	12.4 to 16.2%		19.8 to 20.8%	20 to 24.3%	27.6 to 29.2%	37.5 to 37.9%	> 6 µM								
COc1cc(C)ccc1Oc1nc(Nc2ccc(N3CCOCC3)cc2)ncc1/N=C/c1cccc(OC(F)(F)F)c1	> 20 µM	0.0335 µM	41.7 to 50.1%		49 to 54.7%	41.1 to 43.7%	26.8 to 27.9%	39.2 to 39.8%	< 5 µM								
COc1cc(C)ccc1Oc1nc(Nc2ccc(N3CCOCC3)cc2)ncc1NC(=O)Nc1cc(Cl)cc(Cl)c1		> 100 µM	65.4 to 70%		70.1 to 74.8%	80.2 to 80.7%	90.9 to 97.7%	98.6 to 101%									
COc1cc(/C=N/c2cnc(Nc3ccc(N4CCOCC4)cc3)nc2Oc2cccc(OC)c2)cc(OC)c1		1.86 µM	24 to 26.5%	0.0086 µM	25.4 to 28.1%	34.8 to 36.1%	52.6 to 55.2%	74.3 to 74.7%									
COc1cc(C)ccc1Oc1nc(Nc2ccc(N3CCOCC3)cc2)ncc1/N=C/c1ccc(Cl)cc1	> 5 µM	0.054 µM	16.8%		10.6%	14.7%	19.1%	38.2%	> 6 µM								
COc1cc(Nc2ncc(NC(=O)c3cc(OC)cc(OC)c3)c(Oc3ccc(C)cc3OC)n2)cc(OC)c1		> 100 µM	92.3 to 96.8%		95.7 to 97.5%	100 to 101%	99.6 to 102%	98.3 to 103%									
COc1cc(C)ccc1Oc1nc(Nc2ccc(N3CCOCC3)cc2)ncc1/N=C/c1cccc(Cl)c1	> 1 µM	0.062 µM	28.6 to 36.9%		11.3 to 14.9%	15.3 to 16.8%	19.6 to 23.2%	32.6 to 35.6%	> 1 µM								
COc1cc(NC(=O)Nc2cnc(Nc3cc(OC)cc(OC)c3)nc2Oc2ccc(C)cc2OC)cc(OC)c1		41.4 µM	60.4 to 61.1%		77.3 to 82%	90.1 to 95.8%	101 to 106%	103 to 108%									
